# Calls of active or inactive are those of the source. The rule behind the calls is not given here.
# Columns and labels:
# [1] = organism: Rattus norvegicus; assay: Displacement of [3H]D888 from L-type calcium channel verapamil binding site in rat cerebral cortex synaptoneurosomes at 100 uM measured after 120 mins by scintillation counting method; assay type: tissue-based
# [2] = organism: Rattus norvegicus; assay: Displacement of [3H]diltiazem from L-type calcium channel diltiazem binding site in rat cerebral cortex synaptoneurosomes at 200 uM measured after 120 mins by scintillation counting method; assay type: tissue-based
# [3] = organism: Rattus norvegicus; assay: Displacement of [3H]D888 from L-type calcium channel verapamil binding site in rat cerebral cortex synaptoneurosomes at 200 uM measured after 120 mins by scintillation counting method; assay type: tissue-based
# [4] = organism: Rattus norvegicus; assay: Displacement of [3H]nitrendipine from L-type calcium channel dihydropyridine site in rat cerebral cortex synaptoneurosomes at 200 uM measured after 90 mins by scintillation counting method; assay type: tissue-based
# [5] = organism: Rattus norvegicus; assay: Displacement of [3H]nitrendipine from L-type calcium channel dihydropyridine site in rat cerebral cortex synaptoneurosomes at 100 uM measured after 90 mins by scintillation counting method; assay type: tissue-based
# [6] = organism: Rattus norvegicus; assay: Displacement of [125I]omega-Conotoxin GVIA from N-type calcium channel in rat cerebral cortex synaptoneurosomes at 100 uM measured after 30 mins by scintillation counting method; assay type: tissue-based
# [7] = organism: Rattus norvegicus; assay: Displacement of [3H]Batrachotoxinin from voltage-sensitive sodium channel site 2 in rat cerebral cortex synaptoneurosomes at 500 uM measured after 60 mins by scintillation counting method; assay type: tissue-based
# [8] = organism: Rattus norvegicus; assay: Displacement of [125I]omega-Conotoxin GVIA from N-type calcium channel in rat cerebral cortex synaptoneurosomes at 200 uM measured after 30 mins by scintillation counting method; assay type: tissue-based
# [9] = organism: Rattus norvegicus; assay: Displacement of [3H]diltiazem from L-type calcium channel diltiazem binding site in rat cerebral cortex synaptoneurosomes at 100 uM measured after 120 mins by scintillation counting method; assay type: tissue-based
# [10] = tested on: Mus musculus; assay: Acute neurotoxicity in albino Swiss mouse pretreated for 2 hrs at 100 mg/kg, ip by rotorod test; assay type: toxicity, organism-based; details: in vivo
# [11] = tested on: Mus musculus; assay: Anticonvulsant activity in albino Swiss mouse measured after 30 mins by subcutaneous pentylenetetrazole seizure test; assay type: functional; details: sc, 0.5 h
# [12] = tested on: Mus musculus; assay: Anticonvulsant activity in albino Swiss mouse assessed as protection against electrically-induced seizure pretreated for 0.5 hrs at 100 mg/kg, ip by 6Hz psychomotor seizure test; assay type: functional
# [13] = Acute neurotoxicity in albino Swiss mouse pretreated for 2 hrs by rotorod test; assay type: toxicity, organism-based; details: in vivo
# [14] = tested on: Mus musculus; assay: Anticonvulsant activity in albino Swiss mouse assessed as protection against electrically-induced seizure pretreated for 2 hrs at 100 mg/kg, ip by 6Hz psychomotor seizure test; assay type: functional, organism-based
# [15] = tested on: Mus musculus; assay: Anticonvulsant activity in albino Swiss mouse assessed as reduction in clonic seizures pretreated for 0.5 hrs at 100 mg/kg, ip measured after 30 mins by subcutaneous pentylenetetrazole seizure test; assay type: functional; set-up: scale not given: the % may be the effect or the level left
# [16] = tested on: Mus musculus; assay: Acute neurotoxicity in albino Swiss mouse pretreated for 0.5 hrs at 100 mg/kg, ip by rotorod test; assay type: toxicity, organism-based; details: in vivo
# [17] = organism: Mus musculus; assay: Anticonvulsant activity in albino Swiss mouse by maximal electroshock seizure test; assay type: functional
# [18] = Protective index, ratio of TD50 for acute neurotoxicity in albino Swiss mouse to ED50 for anticonvulsant activity in albino Swiss mouse by subcutaneous pentylenetetrazole seizure test; assay type: toxicity, organism-based; details: in vivo, read-out: Ratio TD50/ED50
# [19] = Protective index, ratio of TD50 for acute neurotoxicity in albino Swiss mouse to ED50 for anticonvulsant activity in albino Swiss mouse by maximal electroshock seizure test; assay type: toxicity, organism-based; details: in vivo, read-out: Ratio TD50/ED50
# [20] = organism: Mus musculus; assay: Anticonvulsant activity in albino Swiss mouse assessed as protection against electrically-induced seizure by 6Hz psychomotor seizure test; assay type: functional
# [21] = tested on: Mus musculus; assay: Anticonvulsant activity in albino Swiss mouse assessed as protection against maximal electroshock-induced seizures pretreated for 0.5 hrs at 100 mg/kg, ip by maximal electroshock seizure test; assay type: functional
# [22] = Protective index, ratio of TD50 for acute neurotoxicity in albino Swiss mouse to ED50 for anticonvulsant activity in albino Swiss mouse by 6Hz psychomotor seizure test; assay type: toxicity, organism-based; details: in vivo, read-out: Ratio TD50/ED50
# [23] = tested on: Mus musculus; assay: Anticonvulsant activity against albino Swiss mouse seizure model assessed as time to peak effect at 100 mg/kg, ip; assay type: functional
# [24] = tested on: Mus musculus; assay: Anticonvulsant activity in albino Swiss mouse assessed as reduction in clonic seizures pretreated for 2 hrs at 100 mg/kg, ip measured after 30 mins by subcutaneous pentylenetetrazole seizure test; assay type: functional, organism-based
# [25] = tested on: Mus musculus; assay: Anticonvulsant activity in albino Swiss mouse assessed as protection against maximal electroshock-induced seizures pretreated for 2 hrs at 100 mg/kg, ip by maximal electroshock seizure test; assay type: functional, organism-based
# [26] = organism: Rattus norvegicus; assay: Displacement of [3H]Batrachotoxinin from voltage-sensitive sodium channel site 2 in rat cerebral cortex synaptoneurosomes at 200 uM measured after 60 mins by scintillation counting method; assay type: tissue-based
# [27] = organism: Rattus norvegicus; assay: Displacement of [3H]Batrachotoxinin from voltage-sensitive sodium channel site 2 in rat cerebral cortex synaptoneurosomes at 100 uM measured after 60 mins by scintillation counting method; assay type: tissue-based
smiles,measurement,setting,value
NC(=O)N1c2ccccc2C=Cc2ccccc21,inhibition,[1],8.8%
same,inhibition,[2],7.3%
same,inhibition,[3],7.5%
same,inhibition,[4],3.6%
same,inhibition,[5],2.6%
same,inhibition,[6],-2.9%
same,inhibition,[7],33.6%
same,inhibition,[8],1.9%
same,inhibition,[9],1.1%
CCC(C(=O)Nc1ccccc1)N1C(=O)CCC1=O (stereo not given),Activity,[10],Non-toxic
same,ED50,[11],75.4 mg/kg
same,Activity,[12],Active
same,TD50 at 2 h,[13],398 mg/kg
same,Activity,[14],inactive
same,Activity,[15],75%
same,Activity,[16],Non-toxic
same,ED50,[17],116 mg/kg
same,selectivity ratio,[18],5.3
same,selectivity ratio,[19],3.4
same,ED50,[20],69.3 mg/kg
same,Activity,[21],75%
same,selectivity ratio,[22],5.7
same,Time,[23],0.5 h
same,Activity,[24],inactive
CCC(C(=O)Nc1cccc(F)c1)N1C(=O)CCC1=O (stereo not given),Activity,[10],Non-toxic
same,Activity,[12],Active
same,TD50 at 2 h,[13],346 mg/kg
same,Activity,[14],inactive
same,ED50,[17],121 mg/kg
same,selectivity ratio,[19],2.9
same,ED50,[20],41.4 mg/kg
same,Activity,[21],75%
same,selectivity ratio,[22],8.4
same,Activity,[25],inactive
same,Time,[23],0.5 h
COC[C@@H](NC(C)=O)C(=O)NCc1ccccc1 [LACOSAMIDE],ED50,[11],> 500 mg/kg
same,ED50,[17],9.4 mg/kg
same,ED50,[20],6.4 mg/kg
same,selectivity ratio,[22],5.3
same,Time,[23],0.5 h
CC1CC(=O)N(C(C)C(=O)Nc2ccc(Cl)cc2)C1=O (stereo not given),Activity,[25],inactive
CC1CC(=O)N(C(C)C(=O)Nc2ccccc2)C1=O (stereo not given),Activity,[25],inactive
CC(C(=O)Nc1ccccc1)N1C(=O)CCC1=O (racemic),ED50,[11],75.4 mg/kg
same,inhibition,[1],-0.8%
same,Activity,[12],Active
same,TD50 at 2 h,[13],336 mg/kg
same,inhibition,[2],43.7%
same,Activity,[15],Active
same,ED50,[17],96.9 mg/kg
same,inhibition,[26],55.2%
same,inhibition,[3],-3.2%
same,selectivity ratio,[18],4.4
same,selectivity ratio,[19],3.5
same,ED50,[20],44.3 mg/kg
same,Activity,[21],50%
same,selectivity ratio,[22],7.6
same,inhibition,[4],2.9%
same,inhibition,[27],26.4%
same,inhibition,[5],-7.7%
same,inhibition,[6],-6.5%
same,Time,[23],0.5 h
same,inhibition,[8],1.3%
same,inhibition,[9],10.8%
same,Activity,[24],inactive
CCCC(CCC)C(=O)O [VALPROIC ACID],Time,[23],0.5 h
CCC1(C)CC(=O)NC1=O (stereo not given) [ETHOSUXIMIDE],ED50,[11],148 mg/kg
same,ED50,[17],> 500 mg/kg
same,selectivity ratio,[18],4.9
same,ED50,[20],> 200 mg/kg
same,Time,[23],0.5 h
CCC(C(=O)Nc1cccc(C(F)(F)F)c1)N1C(=O)CCC1=O (stereo not given),Activity,[21],inactive
same,Activity,[25],inactive
CC(C(=O)Nc1ccc(C(F)(F)F)cc1)N1C(=O)CCC1=O (stereo not given),Activity,[25],inactive
CCC(C(=O)Nc1cccc(Cl)c1)N1C(=O)CCC1=O (stereo not given),Activity,[10],Non-toxic
same,ED50,[11],> 130 mg/kg
same,Activity,[12],75%
same,TD50 at 2 h,[13],> 500 mg/kg
same,Activity,[14],inactive
same,Activity,[15],50%
same,ED50,[17],> 130 mg/kg
same,ED50,[20],43.4 mg/kg
same,Activity,[21],75%
same,selectivity ratio,[22],> 11.5
same,Activity,[25],inactive
same,Time,[23],0.5 h
CC(C(=O)Nc1ccc(F)cc1)N1C(=O)CCC1=O (stereo not given),Activity,[21],inactive
same,Activity,[25],inactive
CCC(C(=O)Nc1ccc(C(F)(F)F)cc1)N1C(=O)CCC1=O (stereo not given),Activity,[21],inactive
same,Activity,[25],inactive
CC1CC(=O)N(C(C)C(=O)Nc2cccc(F)c2)C1=O (stereo not given),Activity,[25],inactive
CC1CC(=O)N(C(C)C(=O)Nc2ccc(F)cc2)C1=O (stereo not given),Activity,[21],inactive
same,Activity,[25],inactive
CC(C(=O)Nc1ccc(Cl)cc1)N1C(=O)CCC1=O (stereo not given),Activity,[21],inactive
CC1CC(=O)N(C(C)C(=O)Nc2ccc(C(F)(F)F)cc2)C1=O (stereo not given),Activity,[21],inactive
same,Activity,[25],inactive
CC1CC(=O)N(C(C)C(=O)Nc2cccc(Cl)c2)C1=O (stereo not given),Activity,[10],Non-toxic
same,ED50,[11],58.4 mg/kg
same,Activity,[12],75%
same,TD50 at 2 h,[13],279 mg/kg
same,Activity,[15],75%
same,Activity,[16],Non-toxic
same,ED50,[17],80.6 mg/kg
same,selectivity ratio,[18],4.8
same,selectivity ratio,[19],3.5
same,ED50,[20],88.2 mg/kg
same,Activity,[21],75%
same,selectivity ratio,[22],3.2
same,Time,[23],0.5 h
same,Activity,[24],inactive
CC(C(=O)Nc1cccc(Cl)c1)N1C(=O)CCC1=O (stereo not given),ED50,[11],87.7 mg/kg
same,Activity,[12],75%
same,TD50 at 2 h,[13],> 500 mg/kg
same,Activity,[14],inactive
same,Activity,[15],75%
same,Activity,[16],50%
same,ED50,[17],105 mg/kg
same,selectivity ratio,[18],> 5.7
same,selectivity ratio,[19],> 4.8
same,ED50,[20],74.5 mg/kg
same,Activity,[21],75%
same,selectivity ratio,[22],> 6.7
same,Activity,[25],inactive
same,Time,[23],0.5 h
CCC(C(=O)Nc1ccc(F)cc1)N1C(=O)CCC1=O (stereo not given),Activity,[21],inactive
same,Activity,[25],inactive
CC(C(=O)Nc1cccc(F)c1)N1C(=O)CCC1=O (stereo not given),Activity,[25],inactive
CC(C(=O)Nc1cccc(C(F)(F)F)c1)N1C(=O)CCC1=O (stereo not given),Activity,[21],inactive
CC[C@@H](C(N)=O)N1CCCC1=O,ED50,[11],> 500 mg/kg
same,TD50 at 2 h,[13],> 500 mg/kg
same,ED50,[17],> 500 mg/kg
same,Time,[23],1 h
CCC(C(=O)Nc1ccc(Cl)cc1)N1C(=O)CCC1=O (stereo not given),Activity,[21],inactive
same,Activity,[25],inactive
CC1CC(=O)N(C(C)C(=O)Nc2cccc(C(F)(F)F)c2)C1=O (stereo not given),Activity,[21],inactive
same,Activity,[25],inactive

# — ChEMBL document CHEMBL3808333, “Design, synthesis and anticonvulsant activity of new hybrid compounds derived from N-phenyl-2-(2,5-dioxopyrrolidin-1-yl)-propanamides and -butanamides” (Bioorg Med Chem, 2016)
